Measurements taken from US10766896B2, “Imidazo[4,5-c] ring compounds containing guanidine substituted benzamide groups” (3M INNOVATIVE PROPERTIES COMPANY, priority 2017, dated 2020).
Where a name gives a salt, the structure may show the parent alone.

Test system: Human peripheral blood mononuclear cells (PBMC)
Test: Cytokine Induction in Human Cells (PBMC; IFN-alpha by ELISA, IFN-gamma and TNF-alpha by multiplex bead assay)
Assay type: cell-based
Conditions: 21-24 hrs culture, lowest concentration inducing cytokine at least 2× greater than negative control; for MEC to Induce Cytokine IFN-alpha: ELISA; for MEC to Induce Cytokine IFN-gamma / MEC to Induce Cytokine TNF-alpha: multiplex bead assay
Procedure: Interferon-alpha (IFN-alpha), interferon-gamma (IFN-gamma) and tumor necrosis factor-alpha (TNF-alpha) cytokine levels (pg/mL) were measured using the procedure ‘Cytokine Induction of Human Cells’ described below. The only difference was that for Examples 2, 3, and 4 the diluted compounds were transferred to the PBMCs to achieve final compound concentrations of 100, 33.3, 11.1, 3.7, 1.23, and 0.41 micromolar. The positive control wells contained imiquimod serially diluted to concentrations of 100, 33.3, 11.1, 3.7, 1.23, and 0.41 micromolar. For Example 5, the diluted compound and positive control (imiquimod) were individually transferred to the PBMCs to achieve final concentrations of 30, 10, 3.3, 1.1, 0.37, 0.12, 0.04, and 0.01 micromolar. According to the procedure described below, IFN-alpha cytokine levels (pg/mL) were measured by using the ELISA assay (human IFN-α, pan specific, Mabtech, Cincinnati, Ohio). IFN-gamma and TNF-alpha levels (pg/mL) were measured by using the multiplex bead assay (magnetic beads, R & D Systems Minneapolis, Minn.) according to the manufacturer's instructions. […] Specifically, the minimum effective concentration of each compound (micromolar) was determined as the lowest concentration of the compound that induced a measured cytokine response at a level ([…]) that was at least 2× greater than that observed with the negative control wells.
Cytokine Induction in Human Cells
Whole blood can be obtained from healthy human donors and collected by venipuncture into vacutainer tubes or syringes containing EDTA. Human peripheral blood mononuclear cells (PBMC) are purified from the whole blood by density gradient centrifugation. Histopaque 1077 (15 mL, Sigma, St. Louis, Mo.) is transferred to 6×50 mL sterile polypropylene conical tubes. The Histopaque is overlayed with 15-25 mL of blood diluted 1:2 in Hank's Balanced Salts Solution (HBSS) (Gibco, Life Technology, Grand Island N.Y.). The tubes are then centrifuged at 1370 rpm for 30 minutes at 20° C., with no brake (400×g, GH 3.8A Rotor).
The interface (buffy coat) containing the PBMC is collected and placed in a new sterile 50 mL conical polypropylene centrifuge tube. The PBMC are mixed with an equal volume of HBSS about 20 mL from the interface and about 20 mL of HBSS), and then centrifuged at 1090 rpm, 10 min, 20° C., with brake (270×g, GH 3.8A Rotor). After completing centrifugation, the cells are resuspended in 2-3 mL ACK Red blood cell lysis buffer (ammonium chloride potassium solution, Gibco, Life Technology) and incubated for 2-5 minutes at 20° C. Next, HBSS (40 mL) is added to the cells, and the sample is centrifuged at 270×g for 10 min at 20° C. The supernatant is decanted, and the cell pellet is resuspended in 5 mL AIM V® Medium (Gibco, Life Technology). Cell aggregates and debris are removed by filtering the cell solution through a BD Falcon 70 micron nylon cell strainer (BD Biosciences, San Jose, Calif.).
The number of viable cells is determined by counting with a Miltenyi FACS instrument (Miltenyi Biotec Inc., San Diego, Calif.) or by using a hemacytometer. For determining cell viability with a hemacytometer, the cells are diluted 1/10 in 0.4% trypan blue and HBSS (specifically, 50 microliter of trypan blue+40 microliter of HBSS+10 microliter of cell solution are added to a microfuge tube and mixed). Ten microliters of the diluted cells are then applied to the hemacytometer, and the number of viable PBMC are determined by microscopy.
The PBMC sample is then resuspended in 96-well plates at a concentration of 8×10^5 cells/well in 0.1 mL of AIM-V medium. Each compound is solubilized in DMSO to create a 3 mM stock solution. The stock solution is then further diluted with AIM-V medium to prepare the serial dilutions. The diluted compound (100 microliters) is then transferred to the PBMCs to achieve final compound concentrations of 10, 1, 0.1, 0.01, 0.001, 0.0001 micromolar. The plates also have both positive and negative controls. […]

Structure (SMILES)	MEC to Induce Cytokine IFN-alpha [µM]	MEC to Induce Cytokine IFN-gamma [µM]	MEC to Induce Cytokine TNF-alpha [µM]
CCCCc1nc2c(N)nc3ccccc3c2n1CCOCCNC(=O)c1ccc(CNC(=N)N)cc1 [Example 2, N-[2-[2-(4-amino-2-butyl-imidazo[4,5-c]quinolin-1-yl)ethoxy]ethyl]-4-(guanidinomethyl)benzamide dihydrochloride]	1.2	1.2	3.7
CCCc1nc2c(N)nc3ccccc3c2n1CCCCNC(=O)c1ccc(CNC(=N)N)cc1 [Example 3, N-[4-(4-amino-2-propyl-imidazo[4,5-c]quinolin-1-yl)butyl]-4-(guanidinomethyl)benzamide dihydrochloride]	3.7	3.7	3.7
CCCCc1nc2c(N)nc3ccccc3c2n1CCCCNC(=O)c1ccc(NC(=N)N)cc1 [Example 4, N-[4-(4-amino-2-butyl-imidazo[4,5-c]quinolin-1-yl)butyl]-4-guanidinobenzamide dihydrochloride]	0.4	3.7	1.2
CCCCc1nc2c(N)nc3ccccc3c2n1CCCCNC(=O)c1ccc(CNC(=N)N)cc1 [Example 5, N-[4-(4-amino-2-butyl-imidazo[4,5-c]quinolin-1-yl)butyl]-4-(guanidinomethyl)benzamide dihydrochloride]	0.37	1.1	
